The subject of test [1] is B16 melanoma cells. The test can be described thus: Intracellular uptake of gadolinium complexes (ICP-MS). The class given is cell-based, mouse. The note with it: 24-h incubation; for intracellular uptake of gadolinium complex: B16 melanoma cells, 10 μM. Here is the method: Cell culture. B16 melanoma cells (mouse) and MH3924A Morris hepatoma cells (rat) were obtained from the German Cancer Research Center (DKFZ) tumor bank and grown at 37° C. as stock cultures in RPMI 1640 supplemented with 10% fetal calf serum and 1% glutamine as standard medium under a 5% CO2 atmosphere (all components: Pan Biotech GmbH, Aidenbach, Germany). For contrast agent uptake studies 10^6 cells were inoculated into 25 cm^2 culture flasks (BD Biosciences, Bedford, USA) and grown for 24 h in 10 mL of the standard culture medium. Cells were then incubated for an additional 24 h (1 h for temperature dependence studies) with fresh medium containing 0, 1, 2.5, 5 or 10 μM of the selected gadolinium complex (three replicate flasks for each incubation). Afterwards the medium was removed, cells were trypsinated, washed twice, resuspended in culture medium and counted (typical yields: 3.5-6 million cells). For comparison 2.5×10^5 human melanocytes (Promo Cell, Heidelberg, Germany) were incubated for 24 h with melanocyte growth medium (Promo Cell, Heidelberg, Germany) containing 0, 1, 2.5, 5 or 10 μM of the selected gadolinium complex (two replicate flasks for each incubation). The work up procedure was as described above typically yielding 2.5×10^5 cells. Cultured human hepatocytes (Cytonet GmbH, Weinheim, Germany) embedded in a collagen matrix in a 12 well microtiter plate, with 6×10^5 viable cells per well were incubated for 24 h in hepatocyte growth medium (Cytonet GmbH, Weinheim, Germany) containing the same concentration series of selected gadolinium complexes. Afterwards the medium was removed, cells were separated using collagenase (Roche Diagnostics, Mannheim, Germany). After digestion the cells were washed twice with PBS, resuspended in culture medium and counted (typical yields: 6×10^5 cells per tube). The intracellular gadolinium content was determined by ICP-MS as described below.
(§1) ICP-MS. Samples containing the above mentioned number of harvested cells were digested with 50% concentrated HNO3 (Superselect; Merck, Darmstadt, Germany) under microwave heating with a Mars 5 apparatus (CEM GmbH, Kamp-Lintfort, Germany). To each sample 100 μL of an aqueous solution of rhodium chloride (1 μg/mL) were added so that Rh-103 could be used as an internal quantification standard. Gd-160 measurements were performed with the ICP-MS instrument mentioned above. The gadolinium concentrations were determined using standard curves created prior to cell analyses. For each uptake incubation condition triplicate cell samples were analyzed, and Gd content for each sample was recorded as the mean of two MS determinations.
Intracellular Uptake of Gadolinium Complexes. B16 melanoma and MH3924A hepatoma cells as well as human melanocytes and hepatocytes were incubated for 24 h in the presence of the gadolinium complexes shown in FIG. 1, using concentrations in the range of 1-10 μM. Incubations with the unsubstituted [Gd(DTPA)(H2O)]^2−complex (Magnevist®) served as controls. Following cell harvest and hydrolysis, inductively coupled plasma mass spectrometry (ICP-MS) with direct detection of gadolinium was used to quantitate complex uptake (triplicate cultures for each incubation).
Cell Uptake Studies. A493 (human kidney), B16 melanoma cells (mouse), HeLa (human cervix), MCF-7 (human breats), MH3924A (Morris hepatoma) cells (rat) and 3T3 NIH (mouse fibroblasts) were obtained from the DKFZ tumor cell collection. 3×10^6 cells of each cell type were grown for 24 hours in culture flasks. Afterwards they were incubated for 1 hour in 10 mL culture media containing 0, 10, 50 and 100 μM of Gd-2.2. Gd-3.2 or Gd-4.2. Afterwards the medium was removed, the cells were trypsinated, washed twice, resuspended in culture medium and counted. The gadolinium uptake was determined in triplicate. […] cells were incubated with 0, 1, 2.5, 5 and 10 μM of the Gd-1.2. and Gd-5.2. for 24 h. […]

The subject of test [2] is MH3924A cells. The test can be described thus: Subcellular distribution. The format is cell-based, rat. Particulars: 100 μM, 24 h, 37° C. Here is the method:
Subcellular distribution. 5×10^6 MH3924A cells were grown in 25 cm^2 culture flasks (BD Biosciences, Bedford, USA) for 24 h in 10 mL of the standard culture medium. Cells were then incubated for an additional 24 h with 100 μM Gd-5.1. Afterwards the medium was removed, cells were trypsinated. Then the organelles were isolated with the Subcellular Proteome Extraction Kit ProteoExtract® (Merck, Darmstadt, Germany) according to the instructions of the manufacturer. Four fractions were obtained: Cytosol, membrane organelles (mainly mitochondria), nucleus and cytoskeleton (with associated endosomes and lysosomes). The gadolinium content for each fraction was determined by ICP-MS as described below.
as §1

The subject of test [3] is human melanocytes. The test can be described thus: Intracellular uptake of gadolinium complexes (ICP-MS). The class given is cell-based. Particulars: 24-h incubation (FIG. 2C). The protocol:
Cell culture. B16 melanoma cells (mouse) and MH3924A Morris hepatoma cells (rat) were obtained from the German Cancer Research Center (DKFZ) tumor bank and grown at 37° C. as stock cultures in RPMI 1640 supplemented with 10% fetal calf serum and 1% glutamine as standard medium under a 5% CO2 atmosphere (all components: Pan Biotech GmbH, Aidenbach, Germany). For contrast agent uptake studies 10^6 cells were inoculated into 25 cm^2 culture flasks (BD Biosciences, Bedford, USA) and grown for 24 h in 10 mL of the standard culture medium. […] Afterwards the medium was removed, cells were trypsinated, washed twice, resuspended in culture medium and counted (typical yields: 3.5-6 million cells). […] After digestion the cells were washed twice with PBS, resuspended in culture medium and counted (typical yields: 6×10^5 cells per tube). The intracellular gadolinium content was determined by ICP-MS as described below.
ICP-MS. […] To each sample 100 μL of an aqueous solution of rhodium chloride (1 μg/mL) were added so that Rh-103 could be used as an internal quantification standard. […] The gadolinium concentrations were determined using standard curves created prior to cell analyses. For each uptake incubation condition triplicate cell samples were analyzed, and Gd content for each sample was recorded as the mean of two MS determinations.

`CCN(CC)CCNC(=O)CN(CCN(CCN(CC(=O)[O-])CC(=O)N(CCN)CCN)CC(=O)[O-])CC(=O)[O-].[Gd+3]` [Gd-3.1]: the “fold increase in intracellular accumulation versus complex of ligand 2.1” value in test [1] (cell line not stated) was 2.87. In test [1], the “intracellular uptake of gadolinium complex” value is 0.082±0.004 fmol/cell.
`NCCN(CCN)C(=O)CN(CCN(CCN(CC(=O)[O-])CC(=O)N(CCN)CCN)CC(=O)[O-])CC(=O)[O-].[Gd+3]` [Gd-5.1]: in test [2], the “subcellular concentration, cytoplasma” value is 0.026 fmol/cell; the “subcellular concentration, cytoskeleton fraction” value came to 0.065 fmol/cell; the “subcellular concentration, nucleus” value is on record as 0.015 fmol/cell. For the same compound, in test [1], the “intracellular uptake of gadolinium complex” value is given as 0.027±0.002 fmol/cell.
As for `NCCCCN(CCCN)C(=O)CN(CCN(CCN(CC(=O)[O-])CC(=O)N(CCCN)CCCCN)CC(=O)[O-])CC(=O)[O-].[Gd+3]` [Gd-6.1], the “factor of higher uptake into B16 melanoma versus human melanocytes” value in test [3] was ~2.

The values are drawn from patent publication US20070202047A1, “Polyamine-substituted ligands for use as contrast agents” (priority 2006, published 2007).
